Tests used:
SLC26A9 = biological target: T1, SLC26A9 (Homo sapiens, UniProt Q7LBE3); experiment: whole cell patch clamp, HEK […] chloride current; format: cell-based; settings: read-out: % inhibition at 50 μM
T1 sequence (Q7LBE3 1-791): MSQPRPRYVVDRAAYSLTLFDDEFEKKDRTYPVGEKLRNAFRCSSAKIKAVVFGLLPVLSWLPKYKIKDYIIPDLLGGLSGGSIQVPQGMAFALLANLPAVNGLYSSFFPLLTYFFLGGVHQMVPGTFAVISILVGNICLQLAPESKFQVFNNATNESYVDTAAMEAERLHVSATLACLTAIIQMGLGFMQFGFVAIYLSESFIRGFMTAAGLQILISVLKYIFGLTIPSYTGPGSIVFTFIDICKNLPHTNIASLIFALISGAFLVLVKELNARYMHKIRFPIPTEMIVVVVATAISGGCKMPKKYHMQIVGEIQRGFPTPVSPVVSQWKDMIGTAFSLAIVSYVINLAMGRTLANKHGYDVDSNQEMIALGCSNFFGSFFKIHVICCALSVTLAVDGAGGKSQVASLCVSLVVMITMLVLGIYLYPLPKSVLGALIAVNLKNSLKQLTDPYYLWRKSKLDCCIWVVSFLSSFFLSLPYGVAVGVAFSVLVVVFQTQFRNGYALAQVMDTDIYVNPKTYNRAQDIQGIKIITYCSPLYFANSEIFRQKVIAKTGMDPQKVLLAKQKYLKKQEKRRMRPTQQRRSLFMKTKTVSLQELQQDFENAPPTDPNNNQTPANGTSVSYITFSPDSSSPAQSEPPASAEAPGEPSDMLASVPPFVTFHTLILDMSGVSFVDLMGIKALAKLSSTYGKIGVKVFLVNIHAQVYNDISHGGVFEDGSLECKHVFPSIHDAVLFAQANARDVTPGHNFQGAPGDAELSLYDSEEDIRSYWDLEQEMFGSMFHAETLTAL

wtCFTR = wtCFTR (Homo sapiens, UniProt P13569); experiment: whole cell patch clamp, HEK […] chloride current; format: cell-based
Sequence of wtCFTR (P13569 whole entry): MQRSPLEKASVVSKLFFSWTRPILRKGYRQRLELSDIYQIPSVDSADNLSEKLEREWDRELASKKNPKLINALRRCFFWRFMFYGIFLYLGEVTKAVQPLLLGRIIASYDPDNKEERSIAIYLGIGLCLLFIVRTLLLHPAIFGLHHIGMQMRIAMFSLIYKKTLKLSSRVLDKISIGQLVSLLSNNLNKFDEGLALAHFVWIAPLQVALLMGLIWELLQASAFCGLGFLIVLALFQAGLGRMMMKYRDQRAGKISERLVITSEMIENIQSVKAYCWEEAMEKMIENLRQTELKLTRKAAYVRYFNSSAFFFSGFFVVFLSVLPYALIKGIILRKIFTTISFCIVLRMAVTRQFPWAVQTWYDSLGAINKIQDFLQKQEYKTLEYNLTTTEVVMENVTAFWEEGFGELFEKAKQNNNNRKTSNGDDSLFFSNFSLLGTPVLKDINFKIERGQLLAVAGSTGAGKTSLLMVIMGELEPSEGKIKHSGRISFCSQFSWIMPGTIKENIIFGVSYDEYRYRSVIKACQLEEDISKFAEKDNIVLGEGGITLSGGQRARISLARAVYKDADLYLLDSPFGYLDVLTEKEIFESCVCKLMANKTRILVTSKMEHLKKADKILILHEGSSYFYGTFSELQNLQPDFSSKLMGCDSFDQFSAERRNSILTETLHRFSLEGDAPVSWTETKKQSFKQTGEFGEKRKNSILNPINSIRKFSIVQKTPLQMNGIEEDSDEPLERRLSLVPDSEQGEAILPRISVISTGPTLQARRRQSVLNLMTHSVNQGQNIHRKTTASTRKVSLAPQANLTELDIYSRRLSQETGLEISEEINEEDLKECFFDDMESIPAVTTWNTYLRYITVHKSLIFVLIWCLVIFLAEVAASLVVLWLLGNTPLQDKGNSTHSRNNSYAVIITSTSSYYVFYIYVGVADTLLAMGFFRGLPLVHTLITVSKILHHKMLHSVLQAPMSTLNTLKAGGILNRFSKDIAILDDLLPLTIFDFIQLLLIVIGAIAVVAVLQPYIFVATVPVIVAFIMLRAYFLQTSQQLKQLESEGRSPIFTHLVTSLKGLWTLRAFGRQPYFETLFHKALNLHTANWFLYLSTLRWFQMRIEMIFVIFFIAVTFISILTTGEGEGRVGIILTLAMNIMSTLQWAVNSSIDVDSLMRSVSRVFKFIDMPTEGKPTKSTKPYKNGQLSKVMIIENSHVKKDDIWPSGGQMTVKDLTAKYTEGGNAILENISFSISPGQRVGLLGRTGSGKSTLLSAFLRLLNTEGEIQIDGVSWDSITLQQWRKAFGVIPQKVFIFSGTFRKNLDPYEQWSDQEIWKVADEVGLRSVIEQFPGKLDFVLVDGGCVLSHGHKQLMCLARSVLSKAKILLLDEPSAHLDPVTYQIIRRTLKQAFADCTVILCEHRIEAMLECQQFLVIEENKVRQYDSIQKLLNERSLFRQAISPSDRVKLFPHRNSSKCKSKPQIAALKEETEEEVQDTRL

inhibition at 50 µM (SLC26A9) [%] | inhibition at 50 µM (wtCFTR; read-out: % inhibition (GlyH-101, 50 μM)) [%] | inhibition at 100 µM (wtCFTR; read-out: % inhibition (glibenclamide, 100 μM)) [%] | Structure (SMILES)
71 ± 4 | 90 ± 2 |  | O=C(CNc1ccc2ccccc2c1)NN=Cc1cc(Br)c(O)c(Br)c1O [GlyH-101]
 |  | 52 ± 10 | COc1ccc(Cl)cc1C(=O)NCCc1ccc(S(=O)(=O)NC(=O)NC2CCCCC2)cc1 [glibenclamide]

From paper PMC2664976 (The Journal of General Physiology, 2009)
